Tests used:
Format in all cases: in vivo
[1] = test system: Amaranthus retroflexus (AMARE); test: Post-emergence herbicidal activity, spray at 100 ppm; conditions: % visual injury compared to treatment control 7 days after treatment
Experimental: (§1) Selected compounds of the invention were screened at 100 ppm concentration against Amaranthus retroflexus (AMARE), Setaria italica (SETIT), and Kochia/Bassia scoparia (KCHSC).
(§2) Accordingly, PPO susceptible weed seeds were sown in 5″×5″ pots by quadrant containing Miracle-Gro potting mix (Scotts Miracle-Gro Company, Marysville, OH, USA) and grown in a Conviron growth chamber with appropriate growth conditions (temperature of 26/22° C. with photoperiod 16/8 h light day/night and light intensity of 300 μmol m^−2 s^−1 supplemented by LED lamps). Relative humidity in the growth chamber was maintained at around 65%. Plants were grown until 2-4 leaf stage and thinned to 5-8 plants per quadrant per species.
(§3) Compounds were formulated in 25% Acetone, 1% Crop oil concentrate (COC-Agridex), 0.1% Tween-20, and 2.5% Ammonium sulphate (AMS). Three replicate pots were treated with each compound. Treatment consisting of the above formulation excluding active compound was applied as a treatment control (TC). Plants were treated with the test compound solution in a laboratory spray chamber fitted with 8003 flat fan nozzles calibrated to deliver 187-200 L ha^−1 at 269 kPa. Plants were placed back in the growth chamber and evaluated for % visual injury compared to TC 7 days after treatment (DAT). The data presented in Table 3 in which A represents a percentage control, where 100% control indicates complete inhibition of weed growth.

[2] = test system: Kochia/Bassia scoparia (KCHSC); test: as above; conditions: % visual injury compared to treatment control 7 days after treatment
Experimental: as §1, §2, §3

Setaria italica (SETIT) = test: as above; conditions: % visual injury compared to treatment control 7 days after treatment
Experimental: as §1, §2, §3

[3] = test system: Amaranthus retroflexus (AMARE), Setaria italica (SETIT), and Kochia/Bassia scoparia (KCHSC); test: Post-emergence herbicidal activity against weed species, overall statement; conditions: concentration of 100 parts per million (PPM)
Experimental: as §1, §2, §3

[4] = test system: Setaria Italica (Foxtail millet); test: Leaf penetration and translocation with and without crop oil concentrate adjuvant (COC); conditions: for Phloem mobility COC / Xylem mobility COC / Phloem mobility No-COC / Xylem mobility No-COC: 1.5 mM, 3×2 μL droplets on leaf, seven days after treatment; for Phloem mobility COC / Xylem mobility COC: with 1% v/v COC; for Phloem mobility No-COC / Xylem mobility No-COC: without COC; for leaf translocation: compared to compounds 920-4 and 920-6
Experimental: Selected compounds of the invention, along with compounds 920-4 and 920-6 from Japanese Patent Application No. 06321920, were tested for leaf penetration, translocation, and herbicidal activity in a grass weed species when applied with or without an adjuvant to increase the compound cuticle penetration.
Four to five PPO susceptible Setarialtalica (Foxtail millet) seed (Ernst Conservation Seeds, Meadville, PA) were sown in each of the 1.5×1.5-inch 6 cell plug inserts containing Miracle-Gro™ potting mix (Scotts Miracle-Gro Company, Marysville, OH, USA) and grown in a Conviron growth chamber with appropriate growth conditions (temperature of 26/22° C. with photoperiod 16/8 h light day/night and light intensity of 300 μmol m^−2 s^−1 supplemented by LED lamps). Relative humidity in the growth chamber was maintained at around 65%. Plants were grown until 1-2 leaf stage (one expanded leaf and one emerging leaf) and thinned to single plant per cell.
Test compounds were formulated to a final concentration of 1.5 mM in 25% Acetone, 0.1% Tween-20 and 2.5% Ammonium sulphate (AMS) with or without the addition of 1% v/v Crop oil concentrate (COC, Agridex). A total of 6 μL was applied as 3×2 μL droplets on the adaxial surface of an emerged Setaria Italica leaf for each of the two compound solutions (with and without COC). Six replicate plants were treated with each compound. Treatment consisting of the above formulation excluding active compound was applied as a treatment control (TC). Plants were placed back in the growth chamber and, seven days after treatment, were evaluated for overall % visual injury compared to TC. Plants were also evaluated for rapid necrosis representative of PPO inhibition at the site of, acropetal to, and basipetal to the droplet application site to estimate the general, xylem, and phloem compound mobility, respectively. In general, compounds with necrosis only at the site of action were considered to be poorly mobile whereas necrosis in the emerging leaf indicates symplastic phloem movement and necrosis from leaf base to tip only on the applied leaf indicates apoplastic xylem movement.
The data are presented in Table 4 are relative to the TC treatment for which the plant and leaf injury percent is consider 0%. “A” represents a percentage leaf or plant injury between 80 and 100%; “B” represents a percentage leaf or plant injury of 20-80%; “C” represents a percentage control below 20%.

SMILES	Post-emergence % control (100 PPM) AMARE [1]	Post-emergence % control (100 PPM) KCHSC [2]	Post-emergence % control (100 PPM) SETIT (Setaria italica (SETIT))	herbicidal activity against weed species [3]	Phloem mobility COC [4]	Xylem mobility COC [4]	Phloem mobility No-COC [4]	Xylem mobility No-COC [4]	leaf translocation [4]
C#CCN1C(=O)C(F)(F)Oc2cc(F)c(-c3c(F)c(F)c(F)c(F)c3F)cc21 [Compound 2, 2,2,7-trifluoro-6-(perfluorophenyl)-4-(prop-2-yn-1-yl)-2H-benzo[b][1,4]oxazin-3(4H)-one]	98%	75%	58%	excellent herbicidal activity	A (“A” represents a percentage leaf or plant injury between 80 and 100%)	A (“A” represents a percentage leaf or plant injury between 80 and 100%)	A (“A” represents a percentage leaf or plant injury between 80 and 100%)	A (“A” represents a percentage leaf or plant injury between 80 and 100%)	significant improved leaf translocation
C#CCN1C(=O)C(F)(F)Oc2cc(F)c(-c3c(F)cc(F)c(F)c3F)cc21 [Compound 37, 2,2,7-trifluoro-4-(prop-2-yn-1-yl)-6-(2,3,4,6-tetrafluorophenyl)-2H-benzo[b][1,4]oxazin-3(4H)-one]	100%	92%	58%	excellent herbicidal activity	A (“A” represents a percentage leaf or plant injury between 80 and 100%)	A (“A” represents a percentage leaf or plant injury between 80 and 100%)	A (“A” represents a percentage leaf or plant injury between 80 and 100%)	A (“A” represents a percentage leaf or plant injury between 80 and 100%)	significant improved leaf translocation
C#CCN1C(=O)COc2cc(F)c(-c3c(F)cc(F)c(F)c3F)cc21 [Compound 52, 7-fluoro-4-(prop-2-yn-1-yl)-6-(2,3,4,6-tetrafluorophenyl)-2H-benzo[b][1,4]oxazin-3(4H)-one]	100%	93%	72%	excellent herbicidal activity	A (“A” represents a percentage leaf or plant injury between 80 and 100%)	A (“A” represents a percentage leaf or plant injury between 80 and 100%)	A (“A” represents a percentage leaf or plant injury between 80 and 100%)	A (“A” represents a percentage leaf or plant injury between 80 and 100%)	significant improved leaf translocation
C#CCN1C(=O)COc2cc(F)c(-c3c(Cl)cc(C(F)(F)F)cc3Cl)cc21 [Compound 920-4, reference compound]	89%	52%	38%	–	A (“A” represents a percentage leaf or plant injury between 80 and 100%)	A (“A” represents a percentage leaf or plant injury between 80 and 100%)	C (“C” represents a percentage control below 20%)	C (“C” represents a percentage control below 20%)	–
C#CCN1C(=O)COc2cc(F)c(-c3ccc(Cl)c(Cl)c3Cl)cc21 [Compound 920-6, reference compound]	85%	21%	18%	–	A (“A” represents a percentage leaf or plant injury between 80 and 100%)	A (“A” represents a percentage leaf or plant injury between 80 and 100%)	C (“C” represents a percentage control below 20%)	C (“C” represents a percentage control below 20%)	–
